This is an account of results in patent publication US10246469B2, “Biaryl kinase inhibitors” (BRISTOL-MYERS SQUIBB COMPANY, priority 2015, dated 2019).

The structures appear in SMILES notation.

The IC50 is the concentration needed to halve the response being measured.

The target of this test is T1, GST-Xa-hAAK1 (Homo sapiens, UniProt Q2M2I8).
T1 construct: GST (N); Factor Xa cleavage site (Xa) (internal); made in house
The test is described as follows: AAK1 Kinase Assay. It is filed as biochemical. Particulars: bacterially expressed GST-Xa-hAAK1 3.5 nM; ATP 22 μM; fluoresceinated peptide 1.5 μM; 3 hours at room temperature; Caliper LabChip 3000. The gist of the method:
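Bacterially expressed GST-Xa-hAAK1 (3.5 nM) phosphorylated 1.5 μM 5-FAM peptide with 22 μM ATP in Tris pH 7.4, MgCl2, DTT, 1.6% DMSO, 3 h at room temperature. EDTA-stopped; product separated electrophoretically on Caliper LabChip. IC50 from eleven concentrations by non-linear regression.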

T1 sequence (Q2M2I8 whole entry): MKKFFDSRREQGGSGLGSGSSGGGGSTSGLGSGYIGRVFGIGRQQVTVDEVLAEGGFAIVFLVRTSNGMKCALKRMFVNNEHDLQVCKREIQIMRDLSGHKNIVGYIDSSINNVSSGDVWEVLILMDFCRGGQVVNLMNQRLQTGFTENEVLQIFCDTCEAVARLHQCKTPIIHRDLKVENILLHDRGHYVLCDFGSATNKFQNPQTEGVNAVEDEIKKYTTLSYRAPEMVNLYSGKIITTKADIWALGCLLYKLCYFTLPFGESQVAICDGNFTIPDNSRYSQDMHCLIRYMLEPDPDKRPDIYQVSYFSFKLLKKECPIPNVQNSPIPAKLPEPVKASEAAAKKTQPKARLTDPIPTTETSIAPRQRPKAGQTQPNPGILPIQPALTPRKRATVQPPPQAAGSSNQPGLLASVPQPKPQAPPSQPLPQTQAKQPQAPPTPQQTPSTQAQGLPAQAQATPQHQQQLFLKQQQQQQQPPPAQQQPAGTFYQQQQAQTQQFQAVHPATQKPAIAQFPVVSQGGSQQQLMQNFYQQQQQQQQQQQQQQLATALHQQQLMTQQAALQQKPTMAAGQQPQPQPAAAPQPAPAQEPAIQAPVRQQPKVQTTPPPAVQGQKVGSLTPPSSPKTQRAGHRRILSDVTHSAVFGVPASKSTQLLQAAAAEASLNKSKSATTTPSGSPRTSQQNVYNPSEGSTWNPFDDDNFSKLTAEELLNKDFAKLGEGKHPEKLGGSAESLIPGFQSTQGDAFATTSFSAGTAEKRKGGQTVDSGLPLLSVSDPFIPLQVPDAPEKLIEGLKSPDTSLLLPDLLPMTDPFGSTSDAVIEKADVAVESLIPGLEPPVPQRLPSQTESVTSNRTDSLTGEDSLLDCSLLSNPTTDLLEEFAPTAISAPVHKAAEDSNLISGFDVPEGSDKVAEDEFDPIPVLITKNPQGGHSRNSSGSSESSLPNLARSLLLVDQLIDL

As to `CC(C)C[C@](C)(N)COc1ccc(-c2ccnc(NC(=O)c3ccco3)c2)cc1C(F)(F)F` [Example 400, (S)—N-(4-(4-((2-amino-2,4-dimethylpentyl)oxy)-3-(trifluoromethyl)phenyl)pyridin-2-yl)furan-2-carboxamide], the IC50 stood at 300 pM.

Regarding `CC(C)C[C@](C)(N)COc1ccc(-c2ccnc(NC(=O)c3ccc(Br)o3)c2)cc1C(F)(F)F` [Example 401, (S)—N-(4-(4-((2-amino-2,4-dimethylpentyl)oxy)-3-(trifluoromethyl)phenyl)pyridin-2-yl)-5-bromofuran-2-carboxamide], the IC50 came to 600 pM.

Take `CC(=O)NCC(=O)Nc1cc(-c2ccc(OC[C@@](C)(N)CC(C)C)c(C(F)(F)F)c2)ccn1` [Example 402, (S)-2-acetamido-N-(4-(4-((2-amino-2,4-dimethylpentyl)oxy)-3-(trifluoromethyl)phenyl)pyridin-2-yl)acetamide]: the IC50 turned out to be 500 pM.

For the molecule `CC(C)C[C@](C)(N)COc1ccc(-c2ccnc(NC(=O)c3cccs3)c2)cc1C(F)(F)F` [Example 403, (S)—N-(4-(4-((2-amino-2,4-dimethylpentyl)oxy)-3-(trifluoromethyl)phenyl)pyridin-2-yl)thiophene-2-carboxamide], the IC50 was found to be 500 pM.

Consider `CC(C)C[C@](C)(N)COc1ccc(-c2ccnc(NC(=O)c3cnccn3)c2)cc1C(F)(F)F` [Example 404, (S)—N-(4-(4-((2-amino-2,4-dimethylpentyl)oxy)-3-(trifluoromethyl)phenyl)pyridin-2-yl)pyrazine-2-carboxamide], for which the 50% inhibitory concentration (IC50) came out at 700 pM.

For the molecule `Cc1ncccc1C(=O)Nc1cc(-c2ccc(OC[C@@](C)(N)CC(C)C)c(C(F)(F)F)c2)ccn1` [Example 405, (S)—N-(4-(4-((2-amino-2,4-dimethylpentyl)oxy)-3-(trifluoromethyl)phenyl)pyridin-2-yl)-2-methylnicotinamide], the IC50 is 2000 pM.

For `CC(C)C[C@](C)(N)COc1ccc(-c2ccnc(NC(=O)c3cnn[nH]3)c2)cc1C(F)(F)F` [Example 406, (S)—N-(4-(4-((2-amino-2,4-dimethylpentyl)oxy)-3-(trifluoromethyl)phenyl)pyridin-2-yl)-1H-1,2,3-triazole-5-carboxamide], the 50% inhibitory concentration (IC50) is 300 pM.

For the molecule `CC(C)C[C@](C)(N)COc1ccc(-c2ccnc(NC(=O)C3=NNC(=O)CC3)c2)cc1C(F)(F)F` [Example 407, (S)—N-(4-(4-((2-amino-2,4-dimethylpentyl)oxy)-3-(trifluoromethyl)phenyl)pyridin-2-yl)-6-oxo-1,4,5,6-tetrahydropyridazine-3-carboxamide], the half-inhibitory concentration (IC50) came out at 800 pM.

Turning to `Cc1cc(C(=O)Nc2cc(-c3ccc(OC[C@@](C)(N)CC(C)C)c(C(F)(F)F)c3)ccn2)no1` [Example 408, (S)—N-(4-(4-((2-amino-2,4-dimethylpentyl)oxy)-3-(trifluoromethyl)phenyl)pyridin-2-yl)-5-methylisoxazole-3-carboxamide], the IC50 is 500 pM.

`CC(C)C[C@](C)(N)COc1ccc(-c2ccnc(NC(=O)c3cc(C(C)C)[nH]n3)c2)cc1C(F)(F)F` [Example 409, (S)—N-(4-(4-((2-amino-2,4-dimethylpentyl)oxy)-3-(trifluoromethyl)phenyl)pyridin-2-yl)-5-isopropyl-1H-pyrazole-3-carboxamide]: the IC50 worked out at 700 pM.

With `CC(C)C[C@](C)(N)COc1ccc(-c2ccnc(NCc3cccnc3)c2)cc1C(F)(F)F` [Example 410, (S)-4-(4-((2-amino-2,4-dimethylpentyl)oxy)-3-(trifluoromethyl)phenyl)-N-(pyridin-3-ylmethyl)pyridin-2-amine], the 50% inhibitory concentration (IC50) was 3600 pM.

`CC(C)C[C@](C)(N)COc1ccc(-c2ccnc(NCc3ccco3)c2)cc1C(F)(F)F` [Example 411, (S)-4-(4-((2-amino-2,4-dimethylpentyl)oxy)-3-(trifluoromethyl)phenyl)-N-(furan-2-ylmethyl)pyridin-2-amine]: the half-inhibitory concentration (IC50) is 1100 pM.
